From US20170334899A1, “AMINO-SUBSTITUTED ISOTHIAZOLES” (Bayer Pharma Aktiengesellschaft, priority 2014, published 2017)

Target: T1, human kinase Mps-1 (Homo sapiens, UniProt P33981)
T1 construct: N-terminally GST-tagged human full length recombinant Mps-1 kinase; GST (N); purchased Invitrogen, Karslruhe, Germany PV4071
T1 sequence (P33981 1-857): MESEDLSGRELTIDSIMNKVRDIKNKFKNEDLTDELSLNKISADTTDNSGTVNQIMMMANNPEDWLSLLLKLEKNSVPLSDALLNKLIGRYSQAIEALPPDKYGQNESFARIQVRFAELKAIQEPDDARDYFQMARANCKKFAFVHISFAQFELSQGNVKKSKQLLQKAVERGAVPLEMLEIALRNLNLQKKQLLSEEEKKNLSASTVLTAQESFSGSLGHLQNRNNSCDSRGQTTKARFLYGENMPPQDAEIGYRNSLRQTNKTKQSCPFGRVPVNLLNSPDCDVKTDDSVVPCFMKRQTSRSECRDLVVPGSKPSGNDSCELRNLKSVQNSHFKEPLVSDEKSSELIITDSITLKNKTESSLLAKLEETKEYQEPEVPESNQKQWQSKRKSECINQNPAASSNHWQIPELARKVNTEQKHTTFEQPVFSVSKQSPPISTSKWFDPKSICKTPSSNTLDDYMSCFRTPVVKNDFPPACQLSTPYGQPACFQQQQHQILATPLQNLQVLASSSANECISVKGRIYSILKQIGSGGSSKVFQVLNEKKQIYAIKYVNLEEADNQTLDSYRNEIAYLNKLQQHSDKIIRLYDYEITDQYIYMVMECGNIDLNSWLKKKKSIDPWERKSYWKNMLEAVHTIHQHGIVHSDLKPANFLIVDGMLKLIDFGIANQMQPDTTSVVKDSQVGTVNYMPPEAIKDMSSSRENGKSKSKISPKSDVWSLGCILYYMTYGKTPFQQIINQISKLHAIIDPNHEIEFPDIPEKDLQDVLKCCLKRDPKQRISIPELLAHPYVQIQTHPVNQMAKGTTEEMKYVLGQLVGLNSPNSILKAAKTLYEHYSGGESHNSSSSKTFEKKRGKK
Test: Mps-1 kinase assay (TR-FRET)
Format: biochemical
Conditions: Mps-1 TR-FRET kinase assay; avg; read-out: Mps1 avg (IC50 [mol/l])
In short: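 GST-tagged full-length recombinant human Mps-1 (~0.5 nM) pre-incubated 15 min with compound, then reacted 60 min at 22 °C with 10 μM ATP and 1 μM biotinylated peptide in Hepes pH 7.7 buffer. EDTA-stopped; TR-FRET (Eu anti-phospho-Ser/Thr to SA-XLent) 665/620 nm ratio normalised to no-inhibitor and no-enzyme controls.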

Compound | IC50 [µM]
Cc1nsc(Nc2cncc(C(F)(F)F)n2)c1C(=O)Nc1ccc(C(=O)N2CCN(CC(F)F)CC2)cc1 [Example 273, N-(4-{[4-(2,2-difluoroethyl)piperazin-1-yl]carbonyl}phenyl)-3-methyl-5-{[6-(trifluoromethyl)pyrazin-2-yl]amino}-1,2-thiazole-4-carboxamide] | > 20
Cc1nsc(Nc2ccc(C#N)cn2)c1C(=O)Nc1cccc(C(=O)NC(C)C)c1 [Example 255, 5-[(5-cyanopyridin-2-yl)amino]-N-[3-(isopropylcarbamoyl)phenyl]-3-methyl-1,2-thiazole-4-carboxamide] | > 20
Cc1nsc(Nc2cnc(C(F)(F)F)cn2)c1C(=O)Nc1ccc(F)c(OC2CCN(CC(F)(F)F)CC2)c1 [Example 264, N-(4-fluoro-3-{[1-(2,2,2-trifluoroethyl)piperidin-4-yl]oxy}phenyl)-3-methyl-5-{[5-(trifluoromethyl)pyrazin-2-yl]amino}-1,2-thiazole-4-carboxamide] | > 20
Cc1nsc(Nc2cnc(C(F)(F)F)cn2)c1C(=O)Nc1ccc(OCCCNCC(F)F)nc1 [Example 293, N-(6-{3-[(2,2-difluoroethyl)amino]propoxy}pyridin-3-yl)-3-methyl-5-{[5-(trifluoromethyl)pyrazin-2-yl]amino}-1,2-thiazole-4-carboxamide] | > 20
Cc1nsc(Nc2cnc3ccccc3n2)c1C(=O)Nc1cccc(NS(=O)(=O)C2CCN(CCC(F)(F)F)CC2)c1 [Example 283, 3-methyl-5-(quinoxalin-2-ylamino)-N-[3-({[1-(3,3,3-trifluoropropyl)piperidin-4-yl]sulfonyl}amino)phenyl]-1,2-thiazole-4-carboxamide] | > 20
Cc1nsc(Nc2cnc(C(F)(F)F)cn2)c1C(=O)Nc1ccc(F)c(OC2CCN(CC(F)F)CC2)c1 [Example 265, N-(3-{[1-(2,2-difluoroethyl)piperidin-4-yl]oxy}-4-fluorophenyl)-3-methyl-5-{[5-(trifluoromethyl)pyrazin-2-yl]amino}-1,2-thiazole-4-carboxamide] | > 20
Cc1nsc(Nc2cnc(C(F)(F)F)cn2)c1C(=O)Nc1ccc(OCCCO)nc1 [Example 279, N-[6-(3-hydroxypropoxy)pyridin-3-yl]-3-methyl-5-{[5-(trifluoromethyl)pyrazin-2-yl]amino}-1,2-thiazole-4-carboxamide] | > 20
Cc1nsc(Nc2cnc(C(F)(F)F)cn2)c1C(=O)Nc1ccc(OCCO)nc1 [Example 277, N-[6-(2-hydroxyethoxy)pyridin-3-yl]-3-methyl-5-{[5-(trifluoromethyl)pyrazin-2-yl]amino}-1,2-thiazole-4-carboxamide] | > 20
Cc1nsc(Nc2cnc(C(F)(F)F)cn2)c1C(=O)Nc1ccc(F)c(OC2CCN(CCF)CC2)c1 [Example 266, N-(4-fluoro-3-{[1-(2-fluoroethyl)piperidin-4-yl]oxy}phenyl)-3-methyl-5-{[5-(trifluoromethyl)pyrazin-2-yl]amino}-1,2-thiazole-4-carboxamide] | > 20
Cc1nsc(Nc2cnc(C(F)(F)F)cn2)c1C(=O)Nc1ccc(OC2CCN(CC(F)F)C2)nc1 (stereo not shown) [Example 296, N-(6-{[1-(2,2-difluoroethyl)pyrrolidin-3-yl]oxy}pyridin-3-yl)-3-methyl-5-{[5-(trifluoromethyl)pyrazin-2-yl]amino}-1,2-thiazole-4-carboxamide] | > 20
Cc1nsc(Nc2cnc3ccccc3n2)c1C(=O)Nc1cccc(NS(=O)(=O)C2CCN(C(=O)OC(C)(C)C)C2)c1 (stereo not shown) [Example 290, tert-butyl 3-{[3-({[3-methyl-5-(quinoxalin-2-ylamino)-1,2-thiazol-4-yl]carbonyl}amino)phenyl]sulfamoyl} pyrrolidine-1-carboxylate] | > 20
Cc1nsc(Nc2cnc3ccccc3n2)c1C(=O)Nc1cccc(NS(=O)(=O)C2CCN(CC(F)(F)F)CC2)c1 [Example 281, 3-methyl-5-(quinoxalin-2-ylamino)-N-[3-({[1-(2,2,2-trifluoroethyl)piperidin-4-yl]sulfonyl}amino)phenyl]-1,2-thiazole-4-carboxamide] | > 20
Cc1nsc(Nc2cnc3ccccc3n2)c1C(=O)Nc1cccc(NS(=O)(=O)C2CCN(CC(F)(F)F)C2)c1 (stereo not shown) [Example 289, 3-methyl-5-(quinoxalin-2-ylamino)-N-[3-({[1-(2,2,2-trifluoroethyl)pyrrolidin-3-yl]sulfonyl}amino)phenyl]-1,2-thiazole-4-carboxamide] | > 20
Cc1nsc(Nc2cnc(C(F)(F)F)cn2)c1C(=O)Nc1ccc(F)c(OCCCN(C)CCC(F)(F)F)c1 [Example 303, N-(4-fluoro-3-{3-[methyl(3,3,3-trifluoropropyl)amino]propoxy}phenyl)-3-methyl-5-{[5-(trifluoromethyl)pyrazin-2-yl]amino}-1,2-thiazole-4-carboxamide] | ≥ 20

Results, then the compound that gave them:

IC50 [µM] | Compound
> 20 | Cc1nsc(Nc2cnc3ccccc3n2)c1C(=O)Nc1cccc(NS(=O)(=O)C2CN(CCF)C2)c1 [Example 287, N-[3-({[1-(2-fluoroethyl)azetidin-3-yl]sulfonyl}amino)phenyl]-3-methyl-5-(quinoxalin-2-ylamino)-1,2-thiazole-4-carboxamide]
≥ 20 | CC(=O)N1CCC(Oc2ccc(NC(=O)c3c(C)nsc3Nc3cnc4ccccc4n3)cn2)CC1 [Example 22, N-{6-[(1-acetylpiperidin-4-yl)oxy]pyridin-3-yl}-3-methyl-5-(quinoxalin-2-ylamino)-1,2-thiazole-4-carboxamide]
> 20 | Cc1nsc(Nc2cnc(C(F)(F)F)cn2)c1C(=O)Nc1ccc(C(=O)NC2CN(CC(F)F)C2)cc1 [Example 271, N-(4-{[1-(2,2-difluoroethyl)azetidin-3-yl]carbamoyl}phenyl)-3-methyl-5-{[5-(trifluoromethyl)pyrazin-2-yl]amino}-1,2-thiazole-4-carboxamide]
> 20 | Cc1nsc(Nc2cnc3ccccc3n2)c1C(=O)Nc1cccc(C(=O)NC2CC2)c1 [Example 249, N-[3-(cyclopropylcarbamoyl)phenyl]-3-methyl-5-(quinoxalin-2-ylamino)-1,2-thiazole-4-carboxamide]
≥ 20 | Cc1nsc(Nc2cnc(C(F)(F)F)cn2)c1C(=O)Nc1ccc(F)c(OCCCNCCC(F)(F)F)c1 [Example 307, N-(4-fluoro-3-{3-[(3,3,3-trifluoropropyl)amino]propoxy}phenyl)-3-methyl-5-{[5-(trifluoromethyl)pyrazin-2-yl]amino}-1,2-thiazole-4-carboxamide]
> 20 | Cc1nsc(Nc2cnc(C(F)(F)F)cn2)c1C(=O)Nc1ccc(C(=O)N2CCN(C)CC2)cc1 [Example 262, 3-methyl-N-{4-[(4-methylpiperazin-1 yl)carbonyl]phenyl}-5-{[5-(trifluoromethyl)pyrazin-2-yl]amino}-1,2-thiazole-4-carboxamide]
> 20 | Cc1nsc(Nc2cnc(C(F)(F)F)cn2)c1C(=O)Nc1ccc(OC2CCN(CCF)C2)nc1 (stereo not shown) [Example 295, N-(6-{[1-(2-fluoroethyl)pyrrolidin-3-yl]oxy}pyridin-3-yl)-3-methyl-5-{[5-(trifluoromethyl)pyrazin-2-yl]amino}-1,2-thiazole-4-carboxamide]
> 20 | Cc1nsc(Nc2cnc3ccccc3n2)c1C(=O)Nc1ccc(N2CCN(C(=O)OC(C)(C)C)CC2)nc1 [Example 248, tert-butyl 4-[5-({[3-methyl-5-(quinoxalin-2-ylamino)-1,2-thiazol-4-yl]carbonyl}amino)pyridin-2-yl]piperazine-1-carboxylate]
> 20 | Cc1nsc(Nc2cnc3ccccc3n2)c1C(=O)Nc1cccc(C(=O)NC(C)C)c1 [Example 253, N-[3-(isopropylcarbamoyl)phenyl]-3-methyl-5-(quinoxalin-2-ylamino)-1,2-thiazole-4-carboxamide]
≥ 20 | Cc1nsc(Nc2cnc(C(F)(F)F)cn2)c1C(=O)Nc1ccc(F)c(OCC2CCN(CCF)CC2)c1 [Example 309, N-(4-fluoro-3-{[1-(2-fluoroethyl)piperidin-4-yl]methoxy}phenyl)-3-methyl-5-{[5-(trifluoromethyl)pyrazin-2-yl]amino}-1,2-thiazole-4-carboxamide]
≥ 20 | Cc1nsc(Nc2cnc(C(F)(F)F)cn2)c1C(=O)Nc1ccc(F)c(OCC2CCN(C(CF)CF)C2)c1 (stereo not shown) [Example 320, N-(3-{[1-(1,3-difluoropropan-2-yl)pyrrolidin-3-yl]methoxy}-4-fluorophenyl)-3-methyl-5-{[5-(trifluoromethyl)pyrazin-2-yl]amino}-1,2-thiazole-4-carboxamide]
